Experimental data reported in ChEMBL document CHEMBL6071164, “9,10-Bis[(4-(2-hydroxyethyl)piperazine-1-yl)prop2-yne-1-yl]anthracene: G-Quadruplex Selectivity and Anticancer Activity” (ACS Med Chem Lett, 2024).
pIC50: −log10 of the molar value. Activity calls are given as the source filed them. No cut-off for these calls is given here.

How the values were obtained:
[1] = system: NCI-H1975; assay: Cytotoxicity against human NCI-H1975 cells assessed as reduction in cell viability incubated for 24 hrs by MTT assay; type: functional, cell-based; conditions: NCI-H1975, 24 h
[2] = system: Quadruplex DNA; assay: Binding affinity to wildtype Tel26 G4 DNA (5'-TTAGGGTTAGGGTTAGGGTTAGGGTT-3') (unknown origin) at 10:1 compound:DNA ratio incubated for 30 mins by ESI-MS analysis; type: nucleic-acid assay
[3] = system: A549; assay: Cytotoxicity against human A549 cells assessed as reduction in cell viability incubated for 24 hrs by MTT assay; type: functional, cell-based; conditions: A549, 24 h
[4] = system: PC-9; assay: Cytotoxicity against human PC-9 cells assessed as reduction in cell viability incubated for 24 hrs by MTT assay; type: functional, cell-based; conditions: PC-9, 24 h
[5] = Cytotoxicity against human BEAS-2B cells assessed as reduction in cell viability incubated for 24 hrs by MTT assay; type: toxicity, cell-based
[6] = system: NCI-H460; assay: Cytotoxicity against human NCI-H460 cells assessed as reduction in cell viability incubated for 24 hrs by MTT assay; type: functional, cell-based; conditions: NCI-H460, 24 h
[7] = system: NCI-H358; assay: Cytotoxicity against human NCI-H358 cells assessed as reduction in cell viability incubated for 24 hrs by MTT assay; type: functional, cell-based; conditions: NCI-H358, 24 h
[8] = system: NCI-H1650; assay: Cytotoxicity against human NCI-H1650 cells assessed as reduction in cell viability incubated for 24 hrs by MTT assay; type: functional, cell-based; conditions: NCI-H1650, 24 h
[9] = system: Quadruplex DNA; assay: Binding affinity to Tel23 G4 DNA (unknown origin) in PBS at pH 7.1 at 1.5 mM by wLOGSY analysis; type: nucleic-acid assay

- Activity [2]: Active
- Activity [9]: Active
Structure (SMILES): OCCN1CCN(CC#Cc2c3ccccc3c(C#CCN3CCN(CCO)CC3)c3ccccc23)CC1
- pIC50 [1]: 5.49
- pIC50 [3]: 5.28
- pIC50 [4]: 5.60
- IC50 at 24 h [5]: 1.07 µM
- pIC50 [6]: 5.72
- pIC50 [7]: 5.21
- pIC50 [8]: < 5.00
